{"source": "patent US12357610B2", "about": "“Aryl-substituted acetamide and pyrrolidin-2-one derivatives and their use for the treatment of seizures” (University of Houston System, priority 2017, dated 2025)", "tested_on": "convulsions in animal models of medically refractory epilepsy", "assay": "rodent models of medically refractory epilepsy (FIG. 12)", "type": "in vivo", "conditions": "multiple rodent models", "data": [{"smiles": "CCC1(c2ccccc2)CCNC1=O", "note": "(racemic) [3-ethyl-3-phenylpyrrolidin-2-one]", "values": [{"measurement": "activity in preventing convulsions in animal models of medically refractory epilepsy", "result": "active"}]}]}
